MIC data for five compounds are collected here from ChEMBL document CHEMBL1143834, “Activity of Garenoxacin against Macrolide-Susceptible and -Resistant Mycoplasma pneumoniae” (2007).

Converted amounts (≈) assume the structure as drawn.

Holding throughout (format): functional
Assay [1] deals with Mycoplasmoides pneumoniae. As to the kind of experiment: Antimicrobial activity against macrolide-susceptible Mycoplasma pneumoniae Mac.
Assay [2] deals with Mycoplasmoides pneumoniae. As to the kind of experiment: Antimicrobial activity against macrolide-susceptible Mycoplasma pneumoniae M129.
In assay [3] the test system is Mycoplasmoides pneumoniae. Briefly: Antimicrobial activity against macrolide-resistant Mycoplasma pneumoniae with 23S rRNA A2064G mutant isolate 2.
Assay [4] concerns Mycoplasmoides pneumoniae. As to the kind of experiment: Antimicrobial activity against macrolide-resistant Mycoplasma pneumoniae with 23S rRNA A2063G mutant isolate 1.
Assay [5] relates to Mycoplasmoides pneumoniae. As to the kind of experiment: Antimicrobial activity against macrolide-resistant Mycoplasma pneumoniae with 23S rRNA A2064G mutant isolate 4.
Assay [6] has as its system Mycoplasmoides pneumoniae. Briefly: Antimicrobial activity against macrolide-susceptible Mycoplasma pneumoniae FH.
In assay [7] the test system is Mycoplasmoides pneumoniae. Briefly: Antimicrobial activity against macrolide-resistant Mycoplasma pneumoniae with 23S rRNA A2063G mutant isolate 6.

As for `CC[C@H]1OC(=O)[C@H](C)[C@@H](O[C@H]2C[C@@](C)(OC)[C@@H](O)[C@H](C)O2)[C@H](C)[C@@H](O[C@@H]2O[C@H](C)C[C@H](N(C)C)[C@H]2O)[C@](C)(OC)C[C@@H](C)C(=O)[C@H](C)[C@@H](O)[C@]1(C)O` [CLARITHROMYCIN], the MIC was 0.002 µg/mL (≈ 0.00267 µM) in assay [1]; 0.002 µg/mL (≈ 0.00267 µM) in assay [2]; 8 µg/mL (≈ 10.7 µM) in assay [3]; 32 µg/mL (≈ 42.8 µM) in assay [4]; 8 µg/mL (≈ 10.7 µM) in assay [5]; 0.004 µg/mL (≈ 0.00535 µM) in assay [6]. Further, the MIC in assay [7] was found to be 32 µg/mL (≈ 42.8 µM).
Take `C[C@H]1NCc2cc(-c3ccc4c(=O)c(C(=O)O)cn(C5CC5)c4c3OC(F)F)ccc21` [GARENOXACIN]: the MIC in assay [1], in assay [2], in assay [3], in assay [4], in assay [5] and in assay [6] was 0.016 µg/mL (≈ 0.0375 µM) in each case. The compound also returned an MIC in assay [7] of 0.031 µg/mL (≈ 0.0727 µM).
`COc1c(N2CCNC(C)C2)c(F)cc2c(=O)c(C(=O)O)cn(C3CC3)c12` (stereo not given) [GATIFLOXACIN]: the MIC in assay [1] is 0.063 µg/mL (≈ 0.168 µM); in assay [2], 0.063 µg/mL (≈ 0.168 µM); in assay [3], 0.063 µg/mL (≈ 0.168 µM); in assay [4] it was 0.031 µg/mL (≈ 0.0826 µM); in assay [5], 0.031 µg/mL (≈ 0.0826 µM); in assay [6], 0.063 µg/mL (≈ 0.168 µM). Besides, 0.063 µg/mL (≈ 0.168 µM) was the least that counted as inhibitory in assay [7] (MIC).
On to `C[C@H]1COc2c(N3CCN(C)CC3)c(F)cc3c(=O)c(C(=O)O)cn1c23.C[C@H]1COc2c(N3CCN(C)CC3)c(F)cc3c(=O)c(C(=O)O)cn1c23.O` [LEVOFLOXACIN], for which the MIC was determined as 0.25 µg/mL in assay [1]; 0.25 µg/mL in assay [2]; 0.25 µg/mL in assay [3]; 0.25 µg/mL in assay [4]; 0.25 µg/mL in assay [5]; 0.5 µg/mL in assay [6]. In assay [7], this compound showed an MIC of 0.5 µg/mL.
With `CN(C)c1ccc(O)c2c1C[C@H]1C[C@H]3[C@H](N(C)C)C(O)=C(C(N)=O)C(=O)[C@@]3(O)C(O)=C1C2=O` [MINOCYCLINE], the MIC in assay [1] came to 0.25 µg/mL (≈ 0.546 µM); in assay [2], 0.25 µg/mL (≈ 0.546 µM); in assay [3], 0.25 µg/mL (≈ 0.546 µM); in assay [4], 0.25 µg/mL (≈ 0.546 µM); in assay [5] it was 0.25 µg/mL (≈ 0.546 µM); in assay [6], 0.5 µg/mL (≈ 1.09 µM). The compound further displayed an MIC in assay [7] of 0.25 µg/mL (≈ 0.546 µM).
